Test system: Pythium aphanidermatum
Assay: Comparison and compatibility of ACM941 with metalaxyl fungicide, pythium root rot of field pea, field experiments
Format: in vivo
Details: for Emergence / Yield: Saturn field pea
[1] = average of the two testing years

For `COCC(=O)N(c1c(C)cccc1C)C(C)C(=O)OC` (stereo not drawn) [Metalaxyl, metalaxyl], the Emergence 1997 was 44.3 ab %, the Yield 1997 was 990 bc kg/ha and the Emergence 1998 was 78.2 a %. For the same compound, the Yield 1998 was 5757 a kg/ha, the “increased emergence by” value [1] was 17.3% and the “increased yield by” value [1] was 19.5%.
